22 compounds from patent publication US10689381B2 (priority 2017, dated 2020) can be followed below.

A word on the IC50: it is the concentration that gives 50% inhibition.

One assay has as its system HCT116. Description: cells. Particulars: Table 2; read-out: IC50 HCT116. The format is cell-based, human. On the procedure:
(§1) A population of cells (>1×10^6 cells/mL as determined with a hemocytometer) was diluted with Dulbecco's Modified Eagle Medium (DMEM, Gibco) containing 10% fetal bovine serum (FBS, Gibco) to give a final concentration of 30,000 cells/mL. To each well of a 96-well plate (Corning® Costar®) was added 100 μL of the cell media solution with a multichannel pipet.
(§2) The test compounds were then added to the plate as follows: test compounds were diluted in DMSO to a concentration of 1 mM. 10-Fold serial dilutions in DMSO were next performed on a separate 96-well plate. Fresh culture media (100 μL) was added to each well of cells resulting in 200 μL of medium per well followed by 2 μL of each test agent. Compounds were tested in duplicate (n=2-8 times) at six concentrations between 0-1000 nM or 0-10000 nM. Following the addition of compound, cultures were incubated for an additional 72 hours.
(§3) The plates were incubated at 37° C. for 5 minutes (L1210) or 15 min (HCT116 and HCT116/VM46).

For a further assay, the system named is L1210. As to the kind of experiment: cells. The conditions noted are these: Table 2. The format is cell-based, mouse. The protocol: as §1, §2, §3

Molecules are shown by their SMILES.

For `CCC1(NC(=O)c2ccc(C3CCCCC3)cc2)CC2CN(CCc3c([nH]c4ccccc34)C(C(=O)OC)(c3cc4c(cc3OC)N(C)C3C(O)(C(=O)OC)C(OC(C)=O)C5(CC)C=CCN6CCC43C65)C2)C1` (centres unmarked) [Compound 43], the IC50 with HCT116 worked out at 30 nM; in the assay with L1210, 40 nM.

As for `CC[C@]1(NC(=O)c2ccc(F)cc2)C[C@H]2CN(CCc3c([nH]c4ccccc34)[C@@](C(=O)OC)(c3cc4c(cc3OC)N(C)[C@H]3[C@@](O)(C(=O)OC)[C@H](OC(C)=O)[C@]5(CC)C=CCN6CC[C@]43[C@@H]65)C2)C1` [Compound 44], the IC50 in the assay with HCT116 turned out to be 1.4 nM; in the assay with L1210 it was 1.8 nM.

`CC[C@]1(NC(=O)c2cccc(F)c2)C[C@H]2CN(CCc3c([nH]c4ccccc34)[C@@](C(=O)OC)(c3cc4c(cc3OC)N(C)[C@H]3[C@@](O)(C(=O)OC)[C@H](OC(C)=O)[C@]5(CC)C=CCN6CC[C@]43[C@@H]65)C2)C1` [Compound 45]: the IC50 came to 5.3 nM in the assay on HCT116 and 5.7 nM with L1210.

Consider `CC[C@]1(NC(=O)c2ccccc2F)C[C@H]2CN(CCc3c([nH]c4ccccc34)[C@@](C(=O)OC)(c3cc4c(cc3OC)N(C)[C@H]3[C@@](O)(C(=O)OC)[C@H](OC(C)=O)[C@]5(CC)C=CCN6CC[C@]43[C@@H]65)C2)C1` [Compound 46], for which the IC50 with HCT116 is 7.7 nM; in the assay on L1210, 8.4 nM.

In the case of `CC[C@]1(NC(=O)c2ccc(Cl)cc2)C[C@H]2CN(CCc3c([nH]c4ccccc34)[C@@](C(=O)OC)(c3cc4c(cc3OC)N(C)[C@H]3[C@@](O)(C(=O)OC)[C@H](OC(C)=O)[C@]5(CC)C=CCN6CC[C@]43[C@@H]65)C2)C1` [Compound 47], the results for the IC50 with HCT116 and in the assay with L1210 were 3.2 nM and 3.1 nM, respectively.

Consider `CC[C@]1(NC(=O)c2cccc(Cl)c2)C[C@H]2CN(CCc3c([nH]c4ccccc34)[C@@](C(=O)OC)(c3cc4c(cc3OC)N(C)[C@H]3[C@@](O)(C(=O)OC)[C@H](OC(C)=O)[C@]5(CC)C=CCN6CC[C@]43[C@@H]65)C2)C1` [Compound 48], for which the IC50 in the assay with HCT116 is 2.7 nM; in the assay with L1210 it was 4.2 nM.

Turning to `CC[C@]1(NC(=O)c2ccccc2Cl)C[C@H]2CN(CCc3c([nH]c4ccccc34)[C@@](C(=O)OC)(c3cc4c(cc3OC)N(C)[C@H]3[C@@](O)(C(=O)OC)[C@H](OC(C)=O)[C@]5(CC)C=CCN6CC[C@]43[C@@H]65)C2)C1` [Compound 49], the IC50 in the assay with HCT116 stood at 55 nM; in the assay with L1210, 50 nM.

For `CC[C@]1(NC(=O)c2ccc(Cl)c(Cl)c2)C[C@H]2CN(CCc3c([nH]c4ccccc34)[C@@](C(=O)OC)(c3cc4c(cc3OC)N(C)[C@H]3[C@@](O)(C(=O)OC)[C@H](OC(C)=O)[C@]5(CC)C=CCN6CC[C@]43[C@@H]65)C2)C1` [Compound 50], the concentration for half-maximal inhibition (IC50) with HCT116 is 8.7 nM; in the assay with L1210, 8.5 nM.

Turning to `CC[C@]1(NC(=O)c2ccc(Br)cc2)C[C@H]2CN(CCc3c([nH]c4ccccc34)[C@@](C(=O)OC)(c3cc4c(cc3OC)N(C)[C@H]3[C@@](O)(C(=O)OC)[C@H](OC(C)=O)[C@]5(CC)C=CCN6CC[C@]43[C@@H]65)C2)C1` [Compound 51], the results for the IC50 in the assay with HCT116 and in the assay with L1210 were 1.4 nM and 2.7 nM, respectively.

Take `CC[C@]1(NC(=O)c2cccc(Br)c2)C[C@H]2CN(CCc3c([nH]c4ccccc34)[C@@](C(=O)OC)(c3cc4c(cc3OC)N(C)[C@H]3[C@@](O)(C(=O)OC)[C@H](OC(C)=O)[C@]5(CC)C=CCN6CC[C@]43[C@@H]65)C2)C1` [Compound 52]: the IC50 stood at 6.3 nM in the assay on HCT116 and 5 nM in the assay on L1210.

With `CCC1(NC(=O)c2ccc(Br)c(Br)c2)CC2CN(CCc3c([nH]c4ccccc34)C(C(=O)OC)(c3cc4c(cc3OC)N(C)C3C(O)(C(=O)OC)C(OC(C)=O)C5(CC)C=CCN6CCC43C65)C2)C1` (centres unmarked) [Compound 53], the IC50 was determined as 40 nM with HCT116 and 60 nM in the assay on L1210.

Regarding `CCC1(NC(=O)c2ccc(C#N)c(C)c2)CC2CN(CCc3c([nH]c4ccccc34)C(C(=O)OC)(c3cc4c(cc3OC)N(C)C3C(O)(C(=O)OC)C(OC(C)=O)C5(CC)C=CCN6CCC43C65)C2)C1` (centres unmarked) [Compound 55], the figures for the IC50 in the assay with HCT116 and in the assay with L1210 were 6.2 nM and 4.8 nM, respectively.

With `CCC1(NC(=O)c2ccc([N+](=O)[O-])cc2)CC2CN(CCc3c([nH]c4ccccc34)C(C(=O)OC)(c3cc4c(cc3OC)N(C)C3C(O)(C(=O)OC)C(OC(C)=O)C5(CC)C=CCN6CCC43C65)C2)C1` (centres unmarked) [Compound 56], the IC50 in the assay with HCT116 and with L1210 was 6.1 nM in each case.

For `CC[C@]1(NC(=O)c2ccc(N)cc2)C[C@H]2CN(CCc3c([nH]c4ccccc34)[C@@](C(=O)OC)(c3cc4c(cc3OC)N(C)[C@H]3[C@@](O)(C(=O)OC)[C@H](OC(C)=O)[C@]5(CC)C=CCN6CC[C@]43[C@@H]65)C2)C1` [Compound 57], the IC50 in the assay with HCT116 and with L1210 was 0.4 nM in each case.

For `CCC1(NC(=O)c2ccc(NC(=O)OC)cc2)CC2CN(CCc3c([nH]c4ccccc34)C(C(=O)OC)(c3cc4c(cc3OC)N(C)C3C(O)(C(=O)OC)C(OC(C)=O)C5(CC)C=CCN6CCC43C65)C2)C1` (centres unmarked) [Compound 59], the concentration for half-maximal inhibition (IC50) in the assay with HCT116 came out at 0.8 nM; in the assay with L1210, 1.5 nM.

For the compound `CC[C@]1(NC(=O)c2ccc(NC)cc2)C[C@H]2CN(CCc3c([nH]c4ccccc34)[C@@](C(=O)OC)(c3cc4c(cc3OC)N(C)[C@H]3[C@@](O)(C(=O)OC)[C@H](OC(C)=O)[C@]5(CC)C=CCN6CC[C@]43[C@@H]65)C2)C1` [Compound 62], the IC50 is 0.33 nM with HCT116 and 0.38 nM in the assay on L1210.

With `CC[C@]1(NC(=O)c2ccc(N(C)C(=O)OC(C)(C)C)cc2)C[C@H]2CN(CCc3c([nH]c4ccccc34)[C@@](C(=O)OC)(c3cc4c(cc3OC)N(C)[C@H]3[C@@](O)(C(=O)OC)[C@H](OC(C)=O)[C@]5(CC)C=CCN6CC[C@]43[C@@H]65)C2)C1` [Compound 63], the values for the IC50 in the assay on HCT116 and with L1210 were 3.9 nM and 4.1 nM, respectively.

On to `CCC1(NC(=O)c2ccc(CN)cc2)CC2CN(CCc3c([nH]c4ccccc34)C(C(=O)OC)(c3cc4c(cc3OC)N(C)C3C(O)(C(=O)OC)C(OC(C)=O)C5(CC)C=CCN6CCC43C65)C2)C1` (centres unmarked) [Compound 65], for which the IC50 in the assay on HCT116 was found to be 3.5 nM; in the assay with L1210, 25 nM.

Regarding `CC[C@]1(NC(=O)c2ccc(CNC(=O)OC(C)(C)C)cc2)C[C@H]2CN(CCc3c([nH]c4ccccc34)[C@@](C(=O)OC)(c3cc4c(cc3OC)N(C)[C@H]3[C@@](O)(C(=O)OC)[C@H](OC(C)=O)[C@]5(CC)C=CCN6CC[C@]43[C@@H]65)C2)C1` [Compound 66], the figures for the IC50 with HCT116 and in the assay on L1210 were 0.7 nM and 0.76 nM, respectively.

Take `CCC1(NC(=O)c2ccc(OC)cc2)CC2CN(CCc3c([nH]c4ccccc34)C(C(=O)OC)(c3cc4c(cc3OC)N(C)C3C(O)(C(=O)OC)C(OC(C)=O)C5(CC)C=CCN6CCC43C65)C2)C1` (centres unmarked) [Compound 67]: the IC50 in the assay on HCT116 worked out at 0.3 nM; in the assay on L1210 it was 0.25 nM.

As for `CCC1(NC(=O)c2cccc(OC)c2)CC2CN(CCc3c([nH]c4ccccc34)C(C(=O)OC)(c3cc4c(cc3OC)N(C)C3C(O)(C(=O)OC)C(OC(C)=O)C5(CC)C=CCN6CCC43C65)C2)C1` (centres unmarked) [Compound 68], the results for the IC50 with HCT116 and with L1210 were 0.8 nM and 0.6 nM, respectively.

On to `CCC1(NC(=O)c2ccccc2OC)CC2CN(CCc3c([nH]c4ccccc34)C(C(=O)OC)(c3cc4c(cc3OC)N(C)C3C(O)(C(=O)OC)C(OC(C)=O)C5(CC)C=CCN6CCC43C65)C2)C1` (centres unmarked) [Compound 69], for which the IC50 was 10 nM with HCT116 and 30 nM with L1210.
